Source: ChEMBL document CHEMBL5108020, “Design and synthesis of novel benzimidazole derivatives as potential Pseudomonas aeruginosa anti-biofilm agents inhibiting LasR: Evidence from comprehensive molecular dynamics simulation and in vitro investigation” (Eur J Med Chem, 2022)
≈ marks a conversion by molar mass, not a printed value. Calls of active or inactive are those of the source. The calls are words filed in the database; no cut-off is given here.

Columns and labels:
[1] = Inhibition of quorum sensing system in Pseudomonas aeruginosa assessed as inhibition of biofilm production at sub-MIC incubated for 24 hrs by crystal violet staining based analysis
Pseudomonas aeruginosa [2] = assay: Antibacterial activity against Pseudomonas aeruginosa assessed as inhibition of bacterial growth incubated for 24 hrs by CLSI broth microdilution method; assay type: functional; conditions: for MIC: Pseudomonas aeruginosa
Pseudomonas aeruginosa [3] = assay: Antibacterial activity against Pseudomonas aeruginosa ATCC 27853 assessed as zone of growth inhibition incubated for 24 hrs by agar diffusion method; assay type: functional
[4] = Inhibition of quorum sensing system in Pseudomonas aeruginosa assessed as inhibition of rhamnolipid production at sub-MIC by spectrophotometric method
[5] = Inhibition of quorum sensing system in Pseudomonas aeruginosa assessed as inhibition of pyocyanin production at sub-MIC by absorbance based analysis
Bacillus subtilis = assay: Antibacterial activity against Bacillus subtilis ATCC 6633 assessed as inhibition of bacterial growth incubated for 24 hrs by agar diffusion method; assay type: functional, organism-based
Klebsiella pneumoniae = assay: Antibacterial activity against Klebsiella pneumoniae ATCC 700603 assessed as inhibition of bacterial growth incubated for 24 hrs by agar diffusion method; assay type: functional, organism-based
Candida albicans = assay: Antifungal activity against Candida albicans ATCC 60193 assessed as inhibition of fungal growth incubated for 48 hrs by agar diffusion method; assay type: functional, organism-based
Escherichia coli = assay: Antibacterial activity against Escherichia coli ATCC 25922 assessed as inhibition of bacterial growth incubated for 24 hrs by agar diffusion method; assay type: functional, organism-based
[6] = Cytotoxicity against human HDFa cells assessed as reduction in cell viability incubated for 24 hrs by MTT assay; assay type: toxicity, cell-based
[7] = Inhibition of quorum sensing system in Pseudomonas aeruginosa assessed as downregulation of lasR gene expression at sub-MIC by fluorescence real time PCR analysis
[8] = Selectivity index, ratio of IC50 for human HDFa cells to MIC for antibacterial activity against Pseudomonas aeruginosa; assay type: toxicity; conditions: read-out: Selectivity Index
Staphylococcus aureus = assay: Antibacterial activity against Staphylococcus aureus ATCC 43300 assessed as inhibition of bacterial growth incubated for 24 hrs by agar diffusion method; assay type: functional, organism-based
[9] = Inhibition of quorum sensing system in Pseudomonas aeruginosa assessed as downregulation of rhlR gene expression at sub-MIC by fluorescence real time PCR analysis

Row | Structure (SMILES) | inhibition [1] | SubMIC (Pseudomonas aeruginosa [2]) | MIC (Pseudomonas aeruginosa [2]) | inhibition zone (IZ) (Pseudomonas aeruginosa [3]) | inhibition [4] | inhibition [5] | Activity (Bacillus subtilis) | Activity (Klebsiella pneumoniae) | Activity (Candida albicans) | Activity (Escherichia coli) | IC50 at 24 h [6] | inhibition [7] | selectivity ratio [8] | Activity (Staphylococcus aureus) | inhibition [9]
1 | O=C(COc1ccc(-c2nc3ccccc3[nH]2)cc1)Nc1ccccc1[N+](=O)[O-] | 63.8% | 36 µM | 145 µM (≈ 56.2 µg/mL) | 15 mm | 44.6% | 60.3% | Active | – | – | – | – | – | – | – | –
2 | O=C(COc1ccc(-c2nc3cc(Cl)ccc3[nH]2)cc1)Nc1ccccc1[N+](=O)[O-] | 51.8% | 16.5 µM | 66.5 µM (≈ 28.1 µg/mL) | 16 mm | 20.4% | 35.8% | – | Active | – | – | – | – | – | – | –
3 | Cc1ccc2[nH]c(-c3ccc(OCC(=O)Nc4ccccc4C)cc3)nc2c1 | 39.5% | 18.8 µM | 57.7 µM (≈ 21.4 µg/mL) | 14 mm | 13.6% | 31% | – | – | Active | – | – | – | – | – | –
4 | O=C(COc1ccc(-c2nc3cc(Cl)ccc3[nH]2)cc1)Nc1ccc(F)cc1 | 45% | 8.8 µM | 35.3 µM (≈ 14 µg/mL) | 19 mm | 18.1% | 32.8% | – | Active | Active | – | – | – | – | – | –
5 | O=C(COc1ccc(-c2nc3ccccc3[nH]2)cc1)Nc1ccc([N+](=O)[O-])cc1 | 63.6% | 36 µM | 145 µM (≈ 56.2 µg/mL) | 17 mm | 35.2% | 57.6% | – | – | – | – | – | – | – | – | –
6 | Cc1ccc(NC(=O)COc2ccc(-c3nc4cc(C)ccc4[nH]3)cc2)cc1 | 64.9% | 18.8 µM | 57.7 µM (≈ 21.4 µg/mL) | 16 mm | 37.8% | 60% | – | – | – | Active | – | – | – | – | –
7 | c1ccc2[nH]c(-c3ccc(N4CCOCC4)cc3)nc2c1 | 60.5% | 50.1 µM | 201 µM (≈ 56.2 µg/mL) | 18 mm | 35.7% | 55.2% | – | Active | – | – | – | – | – | – | –
8 | c1ccc2[nH]c(-c3ccc(-n4ccnc4)cc3)nc2c1 | 46.1% | 26.8 µM | 109 µM (≈ 28.3 µg/mL) | 18 mm | 20.1% | 34% | – | Active | – | – | – | – | – | – | –
9 | C[C@@H](O)[C@H]1C(=O)N2C(C(=O)O)=C(SCCNC=N)C[C@H]12 [IMIPENEM ANHYDROUS] | – | – | 93.9 µM (≈ 28.1 µg/mL) | 19 mm | – | – | – | – | – | – | – | – | – | – | –
10 | O=C(COc1ccc(-c2nc3ccccc3[nH]2)cc1)Nc1ccccc1 | 51.5% | 40.7 µM | 164 µM (≈ 56.2 µg/mL) | 19 mm | 28.2% | 36.7% | – | – | – | – | – | – | – | – | –
11 | Cc1ccc2[nH]c(-c3ccc(OCC(=O)Nc4ccc([N+](=O)[O-])cc4)cc3)nc2c1 | 44.1% | 17.4 µM | 69.9 µM (≈ 28.1 µg/mL) | 15 mm | 15% | 33.7% | Active | – | – | – | – | – | – | – | –
12 | Cc1ccc(NC(=O)COc2ccc(-c3nc4cc(Cl)ccc4[nH]3)cc2)cc1 | 31.3% | 8.9 µM | 35.7 µM (≈ 14 µg/mL) | 18 mm | 11.4% | 24.5% | – | Active | – | – | – | – | – | – | –
13 | CN1CCN(c2ccc(-c3nc4ccccc4[nH]3)cc2)CC1 | 71.7% | 48 µM | 193 µM (≈ 56.4 µg/mL) | 20 mm | 54% | 68.7% | – | Active | Active | Active | 217 µg/mL (≈ 742 µM) | 61.7% | 3.86 | Active | –
14 | O=C(COc1ccc(-c2nc3ccccc3[nH]2)cc1)Nc1ccc(F)cc1 | 51.8% | 38.7 µM | 156 µM (≈ 56.2 µg/mL) | 17 mm | 27.7% | 37% | – | – | – | – | – | – | – | – | –
15 | Cc1ccc2[nH]c(-c3ccc(OCC(=O)Nc4ccccc4)cc3)nc2c1 | 56.3% | 19.5 µM | 78.7 µM (≈ 28.1 µg/mL) | 15 mm | 33% | 54.3% | Active | – | – | – | – | – | – | – | –
16 | O=C(COc1ccc(-c2nc3ccccc3[nH]2)cc1)Nc1ccc(Cl)cc1 | 63.1% | 37 µM | 149 µM (≈ 56.2 µg/mL) | 17 mm | 34.4% | 58% | – | Active | Active | – | – | – | – | – | –

Row | Structure (SMILES) | inhibition [1] | SubMIC (Pseudomonas aeruginosa [2]) | MIC (Pseudomonas aeruginosa [2]) | inhibition zone (IZ) (Pseudomonas aeruginosa [3]) | inhibition [4] | inhibition [5] | Activity (Bacillus subtilis) | Activity (Klebsiella pneumoniae) | Activity (Candida albicans) | Activity (Escherichia coli) | IC50 at 24 h [6] | inhibition [7] | selectivity ratio [8] | Activity (Staphylococcus aureus) | inhibition [9]
17 | Cc1ccc(NC(=O)COc2ccc(-c3nc4ccccc4[nH]3)cc2)cc1 | 52.4% | 39.1 µM | 157 µM (≈ 56.2 µg/mL) | 13 mm | 25.1% | 36.4% | – | – | – | – | – | – | – | – | –
18 | c1ccc2[nH]c(-c3ccc(N4CCCCC4)cc3)nc2c1 | 67.3% | 50.4 µM | 203 µM (≈ 56.3 µg/mL) | 19 mm | 49.6% | 63.6% | – | – | – | – | – | – | – | Active | –
19 | C/C(=C\C(=O)OCCCCCCCCC(=O)O)C[C@@H]1OC[C@H](C[C@@H]2O[C@H]2[C@@H](C)[C@H](C)O)[C@@H](O)[C@H]1O [MUPIROCIN] | – | – | – | – | – | – | – | – | – | – | 161 µg/mL (≈ 322 µM) | – | – | – | –
20 | COc1ccc(NC(=O)COc2ccc(-c3nc4cc(C)ccc4[nH]3)cc2)cc1 | 36.7% | 9 µM | 36.1 µM (≈ 14 µg/mL) | 15 mm | 12.6% | 29% | Active | – | – | Active | – | – | – | – | –
21 | CC[C@H]1OC(=O)[C@H](C)[C@@H](O[C@H]2C[C@@](C)(OC)[C@@H](O)[C@H](C)O2)[C@H](C)[C@@H](O[C@@H]2O[C@H](C)C[C@H](N(C)C)[C@H]2O)[C@](C)(O)C[C@@H](C)CN(C)[C@H](C)[C@@H](O)[C@]1(C)O [AZITHROMYCIN] | 52.5% | 20.1 µM | 85.4 µM (≈ 64 µg/mL) | – | 55.2% | 65% | – | – | – | – | – | 40.8% | – | – | 41.5%
22 | Cc1ccc2[nH]c(-c3ccc(OCC(=O)Nc4ccc(Cl)cc4)cc3)nc2c1 | 55.7% | 8.9 µM | 35.7 µM (≈ 14 µg/mL) | 19 mm | 29.6% | 38.2% | Active | – | – | – | – | – | – | – | –
23 | Cc1ccc2[nH]c(-c3ccc(OCC(=O)Nc4ccc(F)cc4)cc3)nc2c1 | 59.6% | 9.3 µM | 37.2 µM (≈ 14 µg/mL) | 19 mm | 35.2% | 55.8% | Active | – | – | – | – | – | – | – | –
24 | COc1ccc(NC(=O)COc2ccc(-c3nc4ccccc4[nH]3)cc2)cc1 | 67.1% | 37.4 µM | 151 µM (≈ 56.2 µg/mL) | 18 mm | 46.4% | 61.8% | – | – | – | – | – | – | – | Active | –
25 | O=C(COc1ccc(-c2nc3cc(Cl)ccc3[nH]2)cc1)Nc1ccc(Cl)cc1 | 31% | 16.9 µM | 68.2 µM (≈ 28.1 µg/mL) | 17 mm | 3.7% | 13.4% | – | Active | – | Active | – | – | – | – | –
26 | O=C(COc1ccc(-c2nc3cc(Cl)ccc3[nH]2)cc1)Nc1ccccc1 | 53.1% | 18.5 µM | 74.4 µM (≈ 28.1 µg/mL) | 15 mm | 20.7% | 35.5% | – | – | – | – | 102 µg/mL (≈ 270 µM) | – | 3.63 | – | –
27 | COc1ccc(NC(=O)COc2ccc(-c3nc4cc(Cl)ccc4[nH]3)cc2)cc1 | 39.2% | 8.5 µM | 34.3 µM (≈ 14 µg/mL) | 17 mm | 13.8% | 28.9% | Active | – | Active | – | – | – | – | – | –
28 | Cc1ccccc1NC(=O)COc1ccc(-c2nc3ccccc3[nH]2)cc1 | 68.9% | 39.1 µM | 157 µM (≈ 56.2 µg/mL) | 16 mm | 51.8% | 68% | Active | – | – | – | 338 µg/mL (≈ 946 µM) | 26% | 6.01 | – | 16.3%
29 | Cc1ccc2[nH]c(-c3ccc(OCC(=O)Nc4ccccc4[N+](=O)[O-])cc3)nc2c1 | 64.9% | 17.4 µM | 69.9 µM (≈ 28.1 µg/mL) | 14 mm | 42.3% | 60% | Active | – | – | – | 411 µg/mL (≈ 1020 µM) | – | 14.6 | – | –
30 | Cc1ccccc1NC(=O)COc1ccc(-c2nc3cc(Cl)ccc3[nH]2)cc1 | 29% | 17.8 µM | 71.7 µM (≈ 28.1 µg/mL) | 16 mm | 3% | 6.5% | – | Active | – | – | – | – | – | – | –
31 | O=C(COc1ccc(-c2nc3cc(Cl)ccc3[nH]2)cc1)Nc1ccc([N+](=O)[O-])cc1 | 32.5% | 16.5 µM | 66.5 µM (≈ 28.1 µg/mL) | 16 mm | 7% | 14.8% | – | Active | – | – | – | – | – | – | –
